Target: CK2A1 (CK2α/β) (Homo sapiens, UniProt P68400)
Assay: CK2 kinase assay, CK2A1 (CK2α/β)
Assay type: biochemical
Settings: Table A; read-out: CK2A1 (CK2α/β) (IC50)

Sequence of CK2A1 (CK2α/β) (P68400 whole entry, species assumed): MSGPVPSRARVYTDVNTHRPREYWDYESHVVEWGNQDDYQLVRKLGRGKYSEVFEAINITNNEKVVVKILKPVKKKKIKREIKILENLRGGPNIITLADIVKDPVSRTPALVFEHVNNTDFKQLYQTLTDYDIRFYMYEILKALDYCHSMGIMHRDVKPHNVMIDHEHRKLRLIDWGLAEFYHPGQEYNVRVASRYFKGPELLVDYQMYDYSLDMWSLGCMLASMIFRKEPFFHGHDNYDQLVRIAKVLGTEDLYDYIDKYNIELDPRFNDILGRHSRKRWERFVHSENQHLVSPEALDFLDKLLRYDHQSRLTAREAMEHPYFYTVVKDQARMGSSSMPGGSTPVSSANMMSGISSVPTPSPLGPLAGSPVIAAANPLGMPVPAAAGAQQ
Sequence of CK2A1 (CK2α/β) (P67870 whole entry partner, species assumed): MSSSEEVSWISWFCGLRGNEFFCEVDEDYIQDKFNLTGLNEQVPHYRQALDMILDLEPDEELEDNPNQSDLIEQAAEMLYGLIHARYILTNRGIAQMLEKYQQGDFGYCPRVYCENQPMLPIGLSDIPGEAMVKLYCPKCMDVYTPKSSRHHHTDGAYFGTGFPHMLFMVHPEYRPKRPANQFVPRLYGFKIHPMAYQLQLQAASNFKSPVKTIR

N#Cc1cc(Nc2nc(NC3CC3)c3ncc(C#N)n3n2)c(Cl)c(C(O)CO)c1 (racemic) [Example 681, (+/−)-2-((2-chloro-5-cyano-3-(1,2-dihydroxyethyl)phenyl)amino)-4-(cyclopropylamino)imidazo[2,1-f][1,2,4]triazine-7-carbonitrile]
IC50: 640 pM

CC(=O)N[C@@H]1CN(c2cc(C#N)cc(Nc3nc(NC4CC4)c4ncc(C#N)n4n3)c2Cl)CC[C@H]1O (racemic) [Example 190, (+/−)-N-((3R,4R)-1-(2-chloro-5-cyano-3-((7-cyano-4-(cyclopropylamino)imidazo[2,1-f][1,2,4]triazin-2-yl)amino)phenyl)-4-hydroxypiperidin-3-yl)acetamide]
IC50: 480 pM

CCNc1nc(Nc2cc(C#N)cc(C3CCN(C4CN(C(C)=O)C4)CC3)c2Cl)nn2c(C#N)cnc12 [Example 356, 2-((3-(1-(1-acetyl-3-azetidinyl)-4-piperidinyl)-2-chloro-5-cyanophenyl)amino)-4-(ethylamino)imidazo [2,1-f][1,2,4]triazine-7-carbonitrile]
IC50: 720 pM

CCNc1nc(Nc2cc(C#N)cc(N3CC[C@@H]4[C@@H](C3)OC(=O)N4[C@H]3CCOC3)c2Cl)nn2c(C#N)cnc12 (single isomer, unassigned) [Example 841]
IC50: 2310 pM

N#Cc1cc(Nc2nc(NC3CC3)c3ncc(C#N)n3n2)c(F)c(N2CCN(C3CCOC3)CC2)c1 (centres unmarked) [Example 554, 2-((5-cyano-2-fluoro-3-(4-(tetrahydrofuran-3-yl)piperazin-1-yl)phenyl)amino)-4-(cyclopropylamino)imidazo[2,1-f][1,2,4]triazine-7-carbonitrile]
IC50: 5030 pM

CN1CCC2(CCN(c3cc(C#N)cc(Nc4nc(NC5CC5)c5ncc(C#N)n5n4)c3Cl)CC2)C1=O (racemic) [Example 779, (+/−)-2-((2-chloro-5-cyano-3-(2-methyl-1-oxo-2,8-diazaspiro[4.5]decan-8-yl)phenyl)amino)-4-(cyclopropylamino)imidazo[2,1-f][1,2,4]triazine-7-carbonitrile]
IC50: 630 pM

C[C@]1(N)CCN(c2cc(C#N)cc(Nc3nc(NC4CC4)c4ncc(C#N)n4n3)c2Cl)C[C@@H]1O [Example 36, 2-((3-((3S,4S)-4-amino-3-hydroxy-4-methyl-1-piperidinyl)-2-chloro-5-cyanophenyl)amino)-4-(cyclopropylamino)imidazo [2,1-f][1,2,4]triazine-7-carbonitrile]
IC50: 320 pM

CCC(C)(O)CC(=O)N1CC(N2CCN(c3cc(C#N)cc(Nc4nc(NC5CC5)c5ncc(C#N)n5n4)c3Cl)CC2)C1 (centres unmarked) [Example 508, 2-[(2-chloro-5-cyano-3-{4-[1-(3-hydroxy-3-methylpentanoyl)azetidin-3-yl]piperazin-1-yl}phenyl)amino]-4-(cyclopropylamino)imidazo[2,1-f][1,2,4]triazine-7-carbonitrile]
IC50: 4730 pM

N#Cc1cc(Nc2nc(NC3CC3)c3ncc(C#N)n3n2)c(Cl)c(N2CCN(CC(F)F)CC2)c1 [Example 52, 2-((2-chloro-5-cyano-3-(4-(2,2-difluoroethyl)-1-piperazinyl)phenyl)amino)-4-(cyclopropylamino)imidazo[2,1-f][1,2,4]triazine-7-carbonitrile]
IC50: 660 pM

CC(O)(CO)c1cc(C#N)cc(Nc2nc(NC3CC3)c3ncc(C#N)n3n2)c1Cl (racemic) [Example 682, (+/−)-2-((2-chloro-5-cyano-3-(1,2-dihydroxypropan-2-yl)phenyl)amino)-4-(cyclopropylamino)imidazo[2,1-f][1,2,4]triazine-7-carbonitrile]
IC50: 320 pM

CC(O)C(=O)N1CC(N2CCN(c3cc(C#N)cc(Nc4nc(NC5CC5)c5ncc(C#N)n5n4)c3Cl)CC2)C1 (centres unmarked) [Example 487, 2-[(2-chloro-5-cyano-3-{4-[1-(2-hydroxypropanoyl)azetidin-3-yl]piperazin-1-yl}phenyl)amino]-4-(cyclopropylamino)imidazo[2,1-f][1,2,4]triazine-7-carbonitrile]
IC50: 730 pM
